Data as given in patent US5610161A, “Therapeutic agents” (The Boots Company PLC, priority 1992, dated 1997).
Where a name gives a salt, the structure may show the parent alone. Read-outs that look alike come from different tables or passages of the source.

How the values were obtained:
[1] = tested on: reserpine-induced fall in body temperature; experiment: Test 1: reversal of reserpine-induced hypothermia in mice, oral; format: in vivo, mice (Charles River CD1 strain, male); conditions: for ED50: Mus musculus, read-out: Test 1 ED50 (dose causing 50% reversal of the reserpine-induced fall in body temperature)
Protocol: Male mice of the Charles River CD1 strain weighing between 18 and 30 g were separated into groups of five and were supplied with food and water ad libitum. After five hours the body temperature of each mouse was taken orally and the mice were injected intraperitoneally with reserpine (10 mg/kg) in solution in deionised water containing ascorbic acid (50 mg/ml). The amount of liquid injected was 10 ml/kg of body weight. Nine hours after the start of the test food was withdrawn but water was still available ad libitum. Twenty-four hours after the start of the test the temperatures of the mice were taken and the mice were given the test compound orally at a dose volume of 10 ml/kg of body weight. The compound was administered in aqueous solution. Three hours later the temperatures of all the mice were again taken. The percentage reversal of the reserpine-induced fall in body temperature was then calculated by the formula: [formula] The percentage reversal value for each group of five mice was determined at more than one dose rate to enable a value of the dose which causes a 50% reversal (ED50) to be obtained.

[2] = tested on: reserpine-induced ptosis; experiment: Test 2: prevention of reserpine-induced ptosis (eye closure) in rats, oral; format: in vivo, rats (Charles River CD strain, male); conditions: for ED50: Rattus norvegicus, read-out: Test 2 ED50 (dose causing 50% prevention of the reserpine-induced ptosis)
Description: Male rats of the Charles River CD strain weighing between 140 and 180 g were randomly separated into five rats in each cage and supplied with food and water ad libitum. Eighteen hours prior to initiation of the test four of the five rats were marked with a pen such that each rat was individually identifiable; food was then withdrawn. The following morning, two hours before the test, the rats were weighed and a semi-randomised code was used to allocate treatments to rats. The test commenced by orally administering either:
a) the test compound in solution in deionised water at a dose volume of 10 ml/kg of body weight, followed by immediate intravenous injection of 1 ml/kg of body weight of reserpine (0.75 mg/kg) in solution in deionised water containing 238 mM citric acid, 1.02% v/v Tween 80 and 0.2% v/v benzyl alcohol (treated group);
b) deionised water at a dose volume of 10 ml/kg of body weight, followed by immediate intravenous injection of 1 ml/kg of body weight of reserpine (0.75 mg/kg) in solution in deionised water containing 238 mM citric acid, 1.02% v/v Tween 80 and 0.2% v/v benzyl alcohol (positive control group); or
c) deionised water at a dose volume of 10 ml/kg of body weight, followed by immediate intravenous injection of 1 ml/kg of body weight of deionised water containing 238 mM citric acid, 1.02% v/v Tween 80 and 0.2% v/v benzyl alcohol (negative control group).
The degree of prosis was scored 45 seconds and 75 seconds later using the following observer rating system: 0=eye fully open, 1=eye 1/4 closed, 2=eye 1/2 closed, 3=eye 3/4 closed, 4=eye fully closed. A mean ptosis score was then calculated for all identically treated rats usually comprising a group of eight rats. […] The mean ptosis score for each group of treated rats was determined at more than one dose of test compound to enable a value for the dose (ED50) which causes a 50% prevention of the reserpine-induced ptosis to be obtained.

[3] = mice, oral, reserpine 10 mg/kg i.p., temperature 3 h after compound
[4] = rats, oral, reserpine 0.75 mg/kg i.v., ptosis scored 3 h later

SMILES | ED50 [2, 4] [mg/kg] | ED50 [1, 3] [mg/kg] | other results
OC1(c2ccc(Cl)cc2)CCCNC12CCCCC2 (centres unmarked) [Example 1, 5-(4-chlorophenyl)-5-hydroxy-1-azaspiro[5.5]undecane] | 11.3 |  | Test 1 ED50 (dose causing 50% reversal of the reserpine-induced fall in body temperature) [1, 3]: Inactive @ 30
OC1(c2cccc(Cl)c2)CCCNC12CCCCC2 (centres unmarked) [Example 2, 5-(3-chlorophenyl)-5-hydroxy-1-azaspiro[5.5]undecane] | 8.1 | ~16 | 
OC1(c2ccc(Cl)c(Cl)c2)CCCNC12CCCCC2 (centres unmarked) [Example 3, 5-(3,4-dichlorophenyl)-5-hydroxy-1-azaspiro[5.5]undecane] | 7.7 | 10.7 | 
CCN1CCCC(O)(c2ccc(Cl)cc2)C12CCCCC2.Cl (centres unmarked) [Example 4, 5-(4-chlorophenyl)-1-ethyl-5-hydroxy-1-azaspiro[5.5]undecane hydrochloride] | 2.2 |  | Test 1 ED50 (dose causing 50% reversal of the reserpine-induced fall in body temperature) [1, 3]: Inactive @ 30
Clc1ccc(C2=CCCNC23CCCCC3)cc1.O=S(=O)(O)O [Example 5, 5-(4-chlorophenyl)-1-azaspiro[5.5]undec-4-ene sulphate] |  |  | ED50 ([1]; po, 3 h): ~20 mg/kg; ED50 ([2]; po, 3 h): 7 mg/kg
Clc1ccc(C2=CCCNC23CCCCC3)cc1 [Example 6, 5-(4-chlorophenyl)-1-azaspiro[5.5]undec-4-ene 0.5 sulphate, 2.1 hydrate] | 2.7 | 14.1 | 
Cl.Clc1ccc(C2=CCCNC23CCCCC3)cc1 [Example 7, 5-(4-chlorophenyl)-1-azaspiro[5.5]undec-4-ene hydrochloride] | 1.4 | 2 | 
Cl.Clc1cccc(C2=CCCNC23CCCCC3)c1 [Example 8, 5-(3-chlorophenyl)-1-azaspiro[5.5]undec-4-ene hydrochloride] |  |  | ED50 ([1]; po, 3 h): 16.4 mg/kg; ED50 ([2]; po, 3 h): 5.1 mg/kg
Cl.Clc1ccc(C2=CCCNC23CCCCC3)cc1Cl [Example 9, 5-(3,4-dichlorophenyl)-1-azaspiro[5.5]undec-4-ene hydrochloride] | 3.9 | ~11 | 
Fc1ccc(C2=CCCNC23CCCCC3)cc1.O=S(=O)(O)O [Example 10, 5-(4-fluorophenyl)-1-azaspiro[5.5]undec-4-ene sulphate] |  |  | ED50 ([1]; po, 3 h): ~18 mg/kg; ED50 ([2]; po, 3 h): 8.5 mg/kg
Cl.FC(F)(F)c1cccc(C2=CCCNC23CCCCC3)c1 [Example 11, 5-[3-(trifluoromethyl)phenyl]-1-azaspiro[5.5]undec-4-ene hydrochloride] |  | ~22 | Test 2 ED50 (dose causing 50% prevention of the reserpine-induced ptosis) [2, 4]: Inactive @ 30
C1=C(c2ccc3ccccc3c2)C2(CCCCC2)NCC1.Cl [Example 12, 5-(2-naphthyl)-1-azaspiro[5.5]undec-4-ene hydrochloride] | 11.9 | 11.9 | 
Cl.Oc1ccc(C2=CCCNC23CCCCC3)cc1 [Example 13, 5-(4-hydroxyphenyl)-1-azaspiro[5.5]undec-4-ene hydrochloride] | 21.8 |  | Test 1 ED50 (dose causing 50% reversal of the reserpine-induced fall in body temperature) [1, 3]: Inactive @ 30
CN1CCC=C(c2ccc(Cl)cc2)C12CCCCC2.Cl [Example 14, 5-(4-chlorophenyl)-1-methyl-1-azaspiro[5.5]undec-4-ene hydrochloride] | 30 | ~12 | 
Clc1ccc(C2=CCCNC23CCCCC3)cc1.O=C(O)/C=C/C(=O)O [Example 15, 5-(4-chlorophenyl)-1-azaspiro[5.5]undec-4-ene fumarate] | 3.8 | 6.9 | 
CS(=O)(=O)O.Clc1ccc(C2=CCCNC23CCCCC3)cc1 [Example 16, 5-(4-chlorophenyl)-1-azaspiro[5.5]undec-4-ene methanesulphonate] | 3.3 | 9.4 | 
Clc1ccc(C2=CCCNC23CCCC3)cc1.O=S(=O)(O)O [Example 17, 10-(4-chlorophenyl)-6-azaspiro[4.5]dec-9-ene sulphate] |  |  | ED50 ([1]; po, 3 h): ~23 mg/kg; ED50 ([2]; po, 3 h): 3.1 mg/kg
Cl.Clc1ccc(C2CCCNC23CCCCC3)cc1 (centres unmarked) [Example 18, 5-(4-chlorophenyl)-1-azaspiro[5.5]undecane hydrochloride] | 0.5 | 4.8 | 
COc1ccc(C2CCCNC23CCCCC3)cc1.Cl (centres unmarked) [Example 19, 5-(4-methoxyphenyl)-1-azaspiro[5.5]undecane hydrochloride] | 5.8 | ~14 | 
CCCN1CCC=C(c2ccc(Cl)cc2)C12CCCCC2 [Example 20, 5-(4-chlorophenyl)-1-propyl-1-azaspiro[5.5]undec-4-enehydrochloride] | 3 | ~26 | 
C=CCN1CCC=C(c2ccc(Cl)cc2)C12CCCCC2.O=C(O)/C=C\C(=O)O [Example 21, 1-allyl-5-(4-chlorophenyl)-1-azaspiro[5.5]undec-4-ene maleate] | 9.1 |  | Test 1 ED50 (dose causing 50% reversal of the reserpine-induced fall in body temperature) [1, 3]: Inactive @ 30
COCCN1CCC=C(c2ccc(Cl)cc2)C12CCCCC2 [Example 22, 5-(4-chlorophenyl)-1-(2-methoxyethyl)-1-azaspiro[5.5]undec-4-ene 1.25 hydrochloride] | 10.1 | ~30 | 
C1=C(c2ccccc2)C2(CCCCC2)NCC1.Cl [Example 24, 5-phenyl-1-azaspiro[5.5]undec-4-ene hydrochloride] |  | ~11.5 | Test 2 ED50 (dose causing 50% prevention of the reserpine-induced ptosis) [2, 4]: Inactive @ 30
C1=C(c2ccc(-c3ccccc3)cc2)C2(CCCCC2)NCC1.Cl [Example 25, 5-(4-biphenylyl)-1-azaspiro[5.5]undec-4-ene hydrochloride] | 9.9 |  | Test 1 ED50 (dose causing 50% reversal of the reserpine-induced fall in body temperature) [1, 3]: Inactive @ 30
Cl.Clc1ccc(C2=CCNC23CCCCC3)cc1 [Example 26, 4-(4-chlorophenyl)-1-azaspiro[4.5]dec-3-ene hydrochloride] | 5.6 |  | Test 1 ED50 (dose causing 50% reversal of the reserpine-induced fall in body temperature) [1, 3]: Inactive @ 30
